Measurements as given in US20250073226A1, “USE OF OPIOID FOR TREATMENT OF AUTISM SPECTRUM DISORDERS” (priority 2021, published 2025).

Tested on: valproic acid model mice (VPA model)
Assay: Social interaction test in valproic acid model mice
Assay type: in vivo, ICR mice
Conditions: single s.c. dose
From the text: Since ASD-like symptoms such as social impairment and cognitive dysfunction are observed, it is one of the most widely used the ASD model mice.
As the sociality evaluation, a method called a social interaction test was used. In the Social Interaction Test, two mice are placed in one cage, and how many seconds a target mouse (Test mouse) performs sniffing, which is social behavior, on another mouse (Intruder mouse) is quantified.

CO[C@]12CC[C@@]3(C[C@@H]1[C@](C)(O)C(C)(C)C)[C@H]1Cc4ccc(O)c5c4[C@@]3(CCN1CC1CC1)[C@H]2O5 [buprenorphine, 21-cyclopropyl-7-a-[(S)-1-hydroxy-1,2,2-trimethylpropyl]-6,14-endo-ethano-6,7,8,14 tetrahydrooripavine]
improvement effect in social impairment at a high dose (high dose close to the analgesic dose): reduced the improvement effect in social impairment | improvement effect in social impairment (low dose of less than 1/10 of the dose of maximum analgesic effect, 20 minutes from 1 hour after administration): significant improvement effect in social impairment
